One assay deals with PI3K. In words: Immunofluorescence of Ptdlns-3,4,5-P3 production in SYF/cSrc cells. The format is cell-based, mouse. The following applies: for PMA-induced Ptdlns-3,4,5-P3 production: 100 nM PMA with 6 μM bisindolylmaleimide [I], 50 nM wortmannin, LY294002 or 5 μM PP1. The procedure:
SYF/cSrc cells were serum-starved for 24 hours. Cells stimulated with 10% serum (panels c-f), 100 nM PMA for 5 (panels g-h), or 15 minutes (panels i-j); as well as treated with 100 nM PMA in combination with 6 μM bisindolylmaleimide [I] (panels k-I) or 50 nM wortmannin (panels m-n). Cells treated with 100 nM PMA in combination with 5 μM PP1 (panel o-p) and Ptdlns-3,4,5-P3 levels evaluated. Cells were immunolabeled with a PI-3,4,5-P3-specific antibody (Echelon, Inc.;1:100) and TRITC-phalloidin (1:500). Secondary antibody for anti-PI-3,4,5-P3 (1:100) was Alexa IgM 647 anti-mouse (1:200). Bars represent 20 μm.
(§1) SYF, SYF/cSrc, p85α+/+ and p85−/− cells were cultured in standard culture media. Transient transfections of SYF, SYF/cSrc, p85α+/+ cells for immunofluorescence were carried out using LipofectAMINE™ Reagent (Invitrogen) as per manufacturer's protocol. Briefly, Approximately 5.0-8.0×10^4 cells per well were transfected at 50-70% confluent on coverstips with 2-4 μg of plasmid DNA and incubated for 3-4 hours. Thirty-six hours after transfection, cells were serum starved for 12 hours, treated, and subsequently fixed and permeablized as previously described (Qian, Y. et. al., 1998). Cells were treated with a PKC activator, 100 nM PMA for 5 or 15 minutes or in combination with the following pretreatments; a PKC inhibitor, 6 μM bisindolylmaleimide [I] for six hours; or PI3K inhibitor, 10 μM LY294002 for six hours; 50 nM Wortmannin for 30 minutes; and/or a Src family inhibitor, 5 μM PP1 for six hours. For actin labeling, a 1:500 dilution of TRITC-phalloidin was used as labeled in the figures. Primary antibody concentrations used were diluted in 5% Bovine Serum Albumin (BSA) dissolved in 1× phosphate-buffered saline (PBS): EC10 mAb-1:500; Phospho-Src Family (Y416) pAb-1:250; Anti-PI-3,4,5-P3 mAb-1:100; Anti-AFAP-110 (F1)pAb-1:1000; Anti-cSrc pAb-1:500; Anti-flag-1:1000. All fluorescent secondary and phalloidin antibodies were diluted 1:200 in 5% BSA, and are labeled according to figure legends. Cells were washed and mounted on slides with Fluoromount-G (Fisher). A Zeiss LSM 510 confocal microscope was used to scan images of about 1 μM in thickness. To prevent cross-contamination between the different fluorochromes, each channel was imaged sequentially using the multitrack recording module before merging the images. For all figures, representative cells are shown (>100 cells examined per image shown).
Ptdlns-3,4,5-P3 production was measured using the anti-Ptdlns-3,4,5-P3 antibody (Echelon, inc.) for analysis by immunofluorescence and contrasted with stress filament integrity, measured using TRITC-phalloidin as previously described (Chen, R. et. al., 2002; Hama, H. et. al., 2004). SYF/cSrc cells were left untreated or treated with serum as controls for PI3K activation. […] In addition, SYF/cSrc cells were stimulated with PMA for 5 or 15 minutes.

Assay [1] deals with T1, PH1 domain of AFAP-110 (Gallus gallus, UniProt Q90738).
T1 construct: AFAP-110 contains two PH domains, one amino terminal (PH1) and the other carboxy terminal (PH2); made in house; host or cells: bacteria
T1 sequence (Q90738 153-249 limits assumed): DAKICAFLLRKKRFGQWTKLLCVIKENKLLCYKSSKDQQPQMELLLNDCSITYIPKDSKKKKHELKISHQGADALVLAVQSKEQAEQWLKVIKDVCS
In words: Lipid binding assay (Far Western), GST-PH1. Conditions: 0.5 μg/ml fusion protein, lipids spotted on membrane. The protocol: FIG. 5: The phospholipid binding properties of the PH domains of AFAP-110. A) Pleckstrin homology fusion proteins, GST-PH1, GST-PH2 and GST-DAPP1, were purified from bacteria by affinity chromatography. Phospholipids were spotted onto PVDF membranes as described in the methods section. The membranes were incubated overnight with 0.5 μg/ml • GST-PH1, GST-PH2 or GST-DAPP1. Washed membranes were incubated with anti-GST antibody and exposed to film.
B) Pleckstrin homology fusion protein, GST-PH1, was purified from bacteria by affinity chromatography. Two-fold changes in concentration (1.6 pg-100.0 pg) of phospholipids were spotted onto PVDF membranes as described in the methods section. The PIP arrays were incubated with 0.5 μg/ml fusion protein and probed with anti-GST antibody.
Pleckstrin homology (PH) fusion proteins GST-PH1, GST-PH2 and GST-DAPP1, were purified from bacteria by affinity chromatography. A Far Western Blot procedure was used for detecting the fusion protein binding to nitrocellulose immobilized phospholipids (Stevenson, J. Met. al., 1998); PIP strips and PIP arrays were purchased from Echelon, Inc. Overlay assays measured the relative amounts of GST-tagged fusion protein bound to spotted phospholipids. A plasmid encoding GST-DAPP1 previously shown to bind Ptdlns-3,4-P2 and Ptdlns-3,4,5-P3 (Dowler, S. et. al., 1999) was used as a control, kindly provided by Mark Lemmon (Lemmon, M. A., 2003). The membranes were wetted with methanol and then transferred to blocking solution composed of 3% BSA in TBS containing 1% Tween-20 (TBS-T) for 1 hour at 4° C. Membranes were incubated with 0.5 μg/ml each fusion proteins in TBS-T overnight at 4° C. Following incubation, membranes were rinsed three times with TBS-T, washed for 5 minutes and incubated at 4° C. for 1 hour with anti-GST antibody (1:20000 in TBS-T). Following the standard wash procedure, membranes were incubated at 4° C. for 30 minutes with peroxidase-conjugated secondary antibody (1:30000 in TBS-T). The washed membranes were incubated with chemiluminescence reagent and exposed to X-ray film.

In assay [2] the target is T1, PH1 domain of AFAP-110. In words: Lipid sedimentation assay, GST-PH1. Conditions: PC vesicles with lipid 19:1 (PC:PS 7:3), 0.025 mM GST fusion protein. Format: binding. The protocol: E) Lipid sedimentation assay was performed using pleckstrin homology fusion protein GST-PH1 as described in the methods sections. The GST-PH1 fusion protein has the capacity to co-sediment with several lipids containing vesicles as indicated in the pellet (P). Soluble fractions (S) containing unbound GST-PH1 purified fusion proteins were resolved by SDS-PAGE and detected by Coomassie stain.
A sedimentation assay was used to detect PH domain protein association with membrane phospholipids. Phospholipid stock solutions: 1 mg/ml L-α-Ptdlns-4-P, 1.0 mg/ml 1,2-dipalmitoyl-sn-glycero-3-Ptdlns-3-P, 0.1 mg/ml 1,2-dioleoyl-sn-glycero-3-Ptdlns-3,4-P2, and 1 mg/ml L-α-Ptdlns-4,5-P2 in chloroform:methanol:water (60:30:4). However, 10 mg/ml L-α-phosphatidylinositol, 0.1 mg/ml L-α Ptdlns-3-P, 0.2 mg/ml L-α-Ptdlns-3,4,5-P3, 10 mg/ml L-α-phosphatidylserine, and 10 mg/ml L-α-phosphatidylcholine in chloroform neat. All lipid stocks were purged with dry N2 and stored −20° C. The lipid vesicles were prepared as follows utilizing a sonication method. Briefly, in a heavy walled tube, PC and another stock phospholipid (e.g. Ptdlns, Ptdlns-3-P, Ptdlns-4-P, Ptdlns-3,4-P2, Ptdlns-3,5-P2, Ptdlns-3,4,5-P3, or PC) were combined in a 19:1 molar ratio; PC and PS were combined in a 7:3 molar ratio. Lipids were dried with a stream of N2 and traces of solvent were removed by vacuum and resuspended to 5.2 mM PC in buffer B [10 mM HEPES, pH 7.5, 50 mM KCl, 0.5 mM EGTA, and 1.0 mM MgCl2]. The resulting phospholipid sheets were sonicated to form vesicles. Samples were prepared to contain 1.7 mM vesicle PC and 0.025 mM recombinant GST fusion protein (DAPP1 or PH1) in buffer B. Samples were incubated 60 min and centrifuged with a Beckman Airfuge for 15 min at room temperature. 16% of the supernatant and 100% of the pellet from each sample was used for analysis by Laemmli method of SDS polyacrylamide gel electrophoresis. The gels were stained with SYPRO Orange or Coomassie Blue to visualize the proteins.

A further assay deals with cSrc. In words: Immunofluorescence: translocation of cSrc from the perinuclear region to the cell periphery. Format: cell-based, mouse. Conditions: SYF cells, 100 nM PMA with 6 μM bisindolylmaleimide or 10 μM LY. The protocol: FIG. 2: Inhibition of PI3K blocks translocation of cSrc from the perinuclear region of mouse embryo fibroblast in response to PMA treatment. SYF and p85−/− null cells were transiently transfected with cSrc and labeled for avian cSrc using EC10, an avian-specific monoclonal antibody (1:500). EC10 was visualized with anti-mouse Atexa Fluor 488 (false colored red for consistency). Cells treated with 100 nM PMA (panel b) induced translocation of cSrc to the cell periphery as indicated by the arrows. However, cells treated with 100 nM PMA in conjunction with 6 μM bisindolylmaleimide (panel c) or 10 μM LY (panel d) blocked the translocation of cSrc as indicated by the arrows. […] (n=nucleus) Bars represent 20 μM.
as §1, with “All fluorescent secondary and phalloidin antibodies were diluted 1:200 in 5% BSA, and are labeled according to figure legends. Cells were washed and mounted on slides with Fluoromount-G (Fisher). A Zeiss LSM 510 confocal microscope was used to scan images of about 1 μM in thickness. To prevent cross-contamination between the different fluorochromes, each channel was imaged sequentially using the multitrack recording module before merging the images. For all figures, representative cells are shown (>100 cells examined per image shown).” left out

Assay [3] relates to AFAP-110 colocalization with cSrc and cSrc activation. Nature of the assay: Immunofluorescence: PMA-induced colocalization of AFAP-110 with cSrc and cSrc activation in mouse embryo fibroblasts. The format is cell-based. Conditions: 100 nM PMA 15 min. The procedure: FIG. 1: LY294002 blocks PMA-induced colocalization between AFAP-110 and cSrc, and subsequent cSrc activation. A) SYF cells transiently co-expressing GFP-AFAP-110 and cSrc were untreated (panels a-d), treated with 100 nM PMA for 15 minutes (panels e-h), or treated with PMA and either 6 μM bisindolylmaleimide (panels i-I), 10 μM LY294002 (panels m-p) or 50 nM Wortmannin (panels q-t). Fixed cells were immunolabeled with avian specific cSrc antibody, EC10 (1:500), and phospho-Src-family (Tyr416) (1:250) as described in the methods section. Secondary antibodies used were Atexa 546 anti-mouse for EC10 and Alexa 647 anti-rabbit for phospho-Src-family (Tyr416). A merged image was generated to determine colocalization between AFAP-110 and cSrc. Bars represent 20 μM.
D) Knockout MEFs (p85−/−) were transfected with GFP-AFAP-110 and cSrc. Fixed cells were immunolabeled with EC10 (1:500) and phospho-Src-family (Tyr416) (1:250) as described in the methods section. Secondary antibodies used were Alexa 546 anti-mouse for EC10 and Alexa 647 anti-rabbit for phospho-Src-family (Tyr416). Cells treated with 100 riM PMA for 15 minutes (panels e-h). Images were merged to determine colocalization of cSrc and GFP-AFAP-110. Bars represent 20 μm. Mouse embryo fibroblast cells that express the p85α isoform of the PI3K regulatory subunit (p85α+/+) were transfected with GFP-AFAP-110 and cSrc. Fixed cells were immunolabeled with EC10 (1:500) and phospho-Src-family (Tyr416) (1:250) as described in the methods section. Secondary antibodies used were Alexa 546 anti-mouse for EC10 and Alexa 647 anti-rabbit for phospho-Src-family (Tyr416). Images were merged to determine colocalization of cSrc and GFP-AFAP-110. Bars represent 20 μm.
as §1
We utilized SYF cell lines as a model system, mouse embryo fibroblasts engineered to contain null mutations in the c-src,fyn, and c-yes genes (Klinghoffer, R. A. et. al., 1999). The cells were transiently co-transfected with constructs that encode cSrc and GFP-tagged AFAP-110, as previously described (Gatesman, A. et. al., 2004). […]

Setting [4] is: SYF cells co-expressing GFP-AFAP-110 and cSrc, pretreatment 6 μM bisindolylmaleimide, 10 μM LY294002 or 50 nM Wortmannin.

Data on 10 molecules can be found in patent publication US20080234232A1, “Methods and compositions for targeting AFAP” (priority 2007, published 2008).

On to `Cc1ccc(-c2nn(C(C)(C)C)c3ncnc(N)c23)cc1` [PP1], for which the “PMA-directed changes in stress filaments and cell shape” value in the assay with PI3K (100 nM PMA with 5 μM PP1) is given as “impeded”. The “PMA-induced Ptdlns-3,4,5-P3 production” value in the assay on PI3K is “did not block”.

`CCCCCCCCCCCCCCCC(=O)OC[C@H](COP(=O)(O)O[C@@H]1[C@H](O)[C@H](OP(=O)(O)O)[C@@H](O)[C@H](O)[C@H]1O)OC(=O)CCCCCCCCCCCCCCC` [Ptdlns-3-P, phosphatidylinositol-3-phosphate]: the “binding of GST-PH1 to immobilized phospholipid (far western)” value (shortened to “binding of GST-PH1”) on PH1 domain of AFAP-110 [1] was “strong binding”. Besides, the “binding (co-sedimentation) of GST-PH1 to lipid vesicles containing the lipid” value (“binding (co-sedimentation) of GST-PH1” for short) at PH1 domain of AFAP-110 [2] is “did not bind”.

For the molecule `CN(C)CCCn1cc(C2=C(c3c[nH]c4ccccc34)C(=O)NC2=O)c2ccccc21` [bisindolylmaleimide [I]], in the assay on PI3K, the “PMA-induced Ptdlns-3,4,5-P3 production” value is listed as “blocked”. Further, the “PMA-induced translocation of cSrc from the perinuclear region to the cell periphery” value in the assay with cSrc is “blocked”. In addition, in assay [3] (setting [4]), the “PMA-induced cSrc activation (phospho-Src-family Tyr416)” value is reported as “blocked” and the “PMA-induced colocalization of AFAP-110 with cSrc” value is “blocked”. In addition, the “PMA-induced associated morphological changes” value in assay [3] (SYF cells, pretreatment 6 μM bisindolylmaleimide or 10 μM LY294002) is listed as “blocked”.

With Lysophosphatidic acid, at PH1 domain of AFAP-110 [1], the “binding of GST-PH1” value is recorded as “not recognized”.

For Phosphatidylethanolamine, the “binding of GST-PH1” value at PH1 domain of AFAP-110 [1] was “not recognized”.

phosphatidic acid: the “binding of GST-PH1” value on PH1 domain of AFAP-110 [1] is reported as “better than any other phospholipid analyzed”.

With phosphatidylinositol, on PH1 domain of AFAP-110 [1], the “binding of GST-PH1” value was “did not bind”.

For “phosphatidylinositol-4-phosphate [Ptdlns-4-P]”, on PH1 domain of AFAP-110 [1], the “binding of GST-PH1” value is on record as “strong binding”. Also, on PH1 domain of AFAP-110 [2], the “binding (co-sedimentation) of GST-PH1” value was “has the capacity to bind”.

With “phosphatidylinositol-5-phosphate [Ptdlns-5-P]”, the “binding of GST-PH1” value at PH1 domain of AFAP-110 [1] is “strong binding”. For the same molecule, the “binding (co-sedimentation) of GST-PH1” value at PH1 domain of AFAP-110 [2] was “has the capacity to bind”.

phosphatidylserine: on PH1 domain of AFAP-110 [1], the “binding of GST-PH1” value was “had the capacity to recognize”. Further, the “binding (co-sedimentation) of GST-PH1” value on PH1 domain of AFAP-110 [2] is “has the capacity to bind”.
